Assay results reported in ChEMBL document CHEMBL4513139, “CO-ADD screening of University of Strathclyde (UK) compounds”.

How the values were obtained:
[1] = tested on: HEK293; experiment: cells; format: functional, Homo sapiens, ATCC CRL1573; conditions: Homo sapiens, ATCC CRL1573, HEK293; ASSAY_TEST Inhibition of Cell Viability; detection method Resazurin; Fluorescence (ex560/em590); MEDIA DMEM with 10% FBS; plate type 384well; TC; CORNING #3712; time 18 hr; read-out: CC50
[2] = tested on: Klebsiella pneumoniae; experiment: microbe, parasite or virus in culture; conditions: ATCC 700603, 18 h, ASSAY_TEST Inhibition of Bacterial Growth, detection method Absorption (OD600), MEDIA CAMHB, plate type 384well, NBS, CORNING #3640
Description: Antibacterial activity against Klebsiella pneumoniae MDR ATCC 70063 (CO-ADD:GN_003); MIC in CAMBH media using NBS plates, by OD(600)

[3] = tested on: Cryptococcus neoformans
Description: Antifungal activity against Cryptococcus neoformans H99 ATCC 208821 (CO-ADD:FG_002); MIC in YNB media using NBS plates, by Resazurin OD(600-570)

[4] = tested on: Escherichia coli; experiment: microbe, parasite or virus in culture; conditions: ATCC 25922, 18 h, ASSAY_TEST Inhibition of Bacterial Growth, detection method Absorption (OD600), MEDIA CAMHB, plate type 384well, NBS, CORNING #3640
Description: Antibacterial activity against Escherichia coli ATCC 25922 (CO-ADD:GN_001); MIC in CAMBH media using NBS plates, by OD(600)

[5] = tested on: Acinetobacter baumannii; experiment: microbe, parasite or virus in culture; conditions: ATCC 19606, 18 h, ASSAY_TEST Inhibition of Bacterial Growth, detection method Absorption (OD600), MEDIA CAMHB, plate type 384well, NBS, CORNING #3640
Description: Antibacterial activity against Acinetobacter baumannii ATCC 19606 (CO-ADD:GN_034); MIC in CAMBH media using NBS plates, by OD600

[6] = tested on: Pseudomonas aeruginosa; experiment: microbe, parasite or virus in culture; conditions: ATCC 27853, 18 h, ASSAY_TEST Inhibition of Bacterial Growth, detection method Absorption (OD600), MEDIA CAMHB, plate type 384well, NBS, CORNING #3640
Description: Antibacterial activity against Pseudomonas aeruginosa ATCC 27853 (CO-ADD:GN_042); MIC in CAMBH media using NBS plates, by OD(600)

[7] = tested on: Staphylococcus aureus; experiment: microbe, parasite or virus in culture; conditions: ATCC 43300, 18 h, ASSAY_TEST Inhibition of Bacterial Growth, detection method Absorption (OD600), MEDIA CAMHB, plate type 384well, NBS, CORNING #3640
Description: Antibacterial activity against Staphylococcus aureus MRSA ATCC 43300 (CO-ADD:GP_020); MIC in CAMBH media, using NBS plates, by OD(600)

[8] = tested on: Candida albicans; experiment: microbe, parasite or virus in culture; conditions: ATCC 90028, ASSAY_TEST Inhibition of Fungal Growth, detection method Absorption (OD530), plate type 384well, NBS, CORNING #3640
Description: Antifungal activity against Candida albicans ATCC 90028 (CO-ADD:FG_001); MIC in YNB media using NBS plates, by OD630

| SMILES | MIC [2] | MIC [3] | MIC [4] | MIC [5] | MIC [6] | MIC [7] | MIC [8] | CC50 [1] [mg/L] |
| --- | --- | --- | --- | --- | --- | --- | --- | --- |
| Cn1cc(NC(=O)c2ccc(/C=C/c3ccncc3)cc2)cc1C(=O)Nc1cc(C(=O)NCCN2CCOCC2)n(CCCN2CCN(Cc3cccc4ccccc34)CC2)c1.O=C(O)C(F)(F)F.O=C(O)C(F)(F)F.O=C(O)C(F)(F)F.O=C(O)C(F)(F)F | > 32 mg/L | 2 mg/L | > 32 mg/L | > 32 mg/L | > 32 mg/L | > 32 mg/L | 32 mg/L | 2.03 |
| CC(=O)Nc1cc(C(=O)Nc2cc(C(=O)NCCC(=N)N)n(C)c2)n(C)c1.O=C(O)C(F)(F)F | > 32 mg/L | > 32 mg/L | > 32 mg/L | > 32 mg/L | > 32 mg/L | > 32 mg/L | > 32 mg/L | > 32 |
| COc1cccc(C(=N)Nc2cc(C(=O)Nc3cc(C(=O)Nc4nc(C(=O)NCCCN(C)C)c(CCC(C)C)s4)n(C)c3)n(C)c2)c1.O=C(O)C(F)(F)F.O=C(O)C(F)(F)F | > 32 mg/L | 2 mg/L | 32 mg/L | > 32 mg/L | > 32 mg/L | 2 mg/L | > 32 mg/L | > 32 |
| CC(C)CCc1sc(NC(=O)c2cc(NC(=O)c3cc(NC(=O)c4sc(N)nc4C(F)(F)F)cn3C)cn2C)nc1C(=O)NCCCN(C)C.O=C(O)C(F)(F)F | > 32 mg/L | > 32 mg/L | > 32 mg/L | > 32 mg/L | > 32 mg/L | 8 mg/L | > 32 mg/L | 2.48 |
| Cn1cc(NC(=O)c2cc(NC(=O)c3ccc(/C=C/c4ccc(F)cc4)cc3)cn2C)cc1C(=O)NCCN1CCOCC1.O=C(O)C(F)(F)F | > 32 mg/L | > 32 mg/L | > 32 mg/L | > 32 mg/L | > 32 mg/L | > 32 mg/L | > 32 mg/L | > 32 |
| Cn1cc(NC(=O)c2ccc(/C=C/c3ccncc3)cc2)cc1C(=O)Nc1cc(C(=O)NCCN2CCOCC2)n(CCCN2CCOCC2)c1.O=C(O)C(F)(F)F.O=C(O)C(F)(F)F | > 32 mg/L | > 32 mg/L | > 32 mg/L | > 32 mg/L | > 32 mg/L | 4 mg/L | > 32 mg/L | 4.65 |
| Cn1cc(NC(=O)c2cc(NC(=N)c3ccccc3)cn2C)cc1C(=O)NCCC(=N)N.O=C(O)C(F)(F)F.O=C(O)C(F)(F)F | > 32 µM | > 32 µM | > 32 µM | > 32 µM | > 32 µM | > 32 µM | > 32 µM | > 32 |
| Cc1ncc(Cn2cc(CCOS(C)(=O)=O)nn2)c(N)n1 | > 32 mg/L | 2 mg/L | > 32 mg/L | > 32 mg/L | > 32 mg/L | > 32 mg/L | 1 mg/L | > 32 |
| CC(C)n1cc(NC(=O)c2cc(NC=O)cn2C)cc1C(=O)Nc1cc(C(=O)NCCCN(C)C)n(C)c1.O=C(O)C(F)(F)F | > 32 mg/L | > 32 mg/L | > 32 mg/L | > 32 mg/L | > 32 mg/L | > 32 mg/L | > 32 mg/L | > 32 |
| Cn1cc(NC(=O)c2cc(NC(=O)c3ccc(/C=C/c4ccc5ccccc5c4)cc3)cn2C)cc1C(=O)NCCN1CCOCC1.O=C(O)C(F)(F)F | > 32 mg/L | > 32 mg/L | > 32 mg/L | > 32 mg/L | > 32 mg/L | > 32 mg/L | 16 mg/L | > 32 |
| Cn1cc(NC(=O)c2ccc(/C=C/c3ccncc3)cc2)cc1C(=O)Nc1cc(C(=O)NCCN2CCOCC2)n(CCCSc2ccccc2)c1.O=C(O)C(F)(F)F.O=C(O)C(F)(F)F | > 32 mg/L | > 32 mg/L | > 32 mg/L | > 32 mg/L | > 32 mg/L | > 32 mg/L | > 32 mg/L | > 32 |

Further lines, with some results ahead:

| MIC [2] | MIC [3] | MIC [4] | MIC [5] | MIC [6] | MIC [7] | MIC [8] | SMILES | CC50 [1] [mg/L] |
| --- | --- | --- | --- | --- | --- | --- | --- | --- |
| > 32 mg/L | > 32 mg/L | > 32 mg/L | > 32 mg/L | > 32 mg/L | > 32 mg/L | > 32 mg/L | COc1ccc(/C=C/c2ccc(C(=O)Nc3cc(C(=O)Nc4cc(C(=O)NCCN5CCC(O)CC5)n(C)c4)n(C)c3)cn2)cc1.O=C(O)C(F)(F)F.O=C(O)C(F)(F)F | > 32 |
| > 32 mg/L | > 32 mg/L | > 32 mg/L | > 32 mg/L | > 32 mg/L | > 32 mg/L | > 32 mg/L | COC(=O)CCC(=O)Nc1cc(C(=O)Nc2cc(C(=O)Nc3nc(C(=O)NCCCN(C)C)c(CCC(C)C)s3)n(C)c2)n(C)c1 | > 32 |
| > 32 mg/L | > 32 mg/L | > 32 mg/L | > 32 mg/L | > 32 mg/L | > 32 mg/L | > 32 mg/L | COc1cccc(/C=C/c2ccc(C(=O)Nc3cc(C(=O)Nc4cc(C(=O)NCCN5CCCCC5)n(CCCc5ccccc5)c4)n(C)c3)cc2)c1.O=C(O)C(F)(F)F | 16 |
| > 32 mg/L | 16 mg/L | > 32 mg/L | > 32 mg/L | > 32 mg/L | 1 mg/L | 32 mg/L | CC(C)n1cc(NC(=O)c2cc(NC(=O)c3ccc(/C=C/c4cnc5ccccc5c4)cc3)cn2C)cc1C(=O)NCCN1CCOCC1.O=C(O)C(F)(F)F.O=C(O)C(F)(F)F | 2.81 |
| > 32 mg/L | > 32 mg/L | > 32 mg/L | > 32 mg/L | > 32 mg/L | > 32 mg/L | > 32 mg/L | CC(=N)Nc1cc(C(=O)Nc2cc(C(=O)Nc3cc(C(=O)NCCCN(C)C)n(C)c3)n(C)c2)n(C)c1.O=C(O)C(F)(F)F.O=C(O)C(F)(F)F | > 32 |
| > 32 mg/L | 8 mg/L | 32 mg/L | > 32 mg/L | > 32 mg/L | 32 mg/L | > 32 mg/L | CC(C)CCn1cc(NC(=O)c2cc(NC(=O)c3cc(NC(=N)c4cnc5ccccc5c4)cn3C)cn2C)cc1C(=O)NCCCN(C)C.O=C(O)C(F)(F)F.O=C(O)C(F)(F)F | 11.6 |
| > 32 mg/L | 32 mg/L | > 32 mg/L | > 32 mg/L | > 32 mg/L | > 32 mg/L | > 32 mg/L | CC(C)c1sc(NC(=O)c2cc(NC(=O)c3cc(NC(=O)c4cc5ccccc5cn4)cn3C)cn2C)nc1C(=O)NCCN1CCOCC1.O=C(O)C(F)(F)F | > 32 |
| > 32 mg/L | > 32 mg/L | > 32 mg/L | > 32 mg/L | > 32 mg/L | > 32 mg/L | > 32 mg/L | COc1cccc(/C=C/c2ccc(C(=O)Nc3cc(C(=O)Nc4cc(C(=O)NCCN5CCOCC5)n(C(C)C)c4)n(C)c3)cc2)c1.O=C(O)C(F)(F)F | 4.31 |
| > 32 mg/L | 8 mg/L | > 32 mg/L | > 32 mg/L | > 32 mg/L | > 32 mg/L | 32 mg/L | CN(C)CCCNC(=O)c1cc(NC(=O)c2cc(NC(=O)c3cc(NC(=N)c4cc5ccccc5cn4)cn3C)cn2C)cn1C.O=C(O)C(F)(F)F.O=C(O)C(F)(F)F | > 32 |
| > 32 mg/L | 32 mg/L | > 32 mg/L | > 32 mg/L | > 32 mg/L | > 32 mg/L | > 32 mg/L | CC(C)CCn1cc(NC(=O)c2cc(NC(=O)c3cc(NC(=N)N)cn3C)cn2C)cc1C(=O)NCCCN(C)C.O=C(O)C(F)(F)F.O=C(O)C(F)(F)F | > 32 |
